In US20240132513A1, “BENZAZEPINE DERIVATIVES, COMPOSITIONS, AND METHODS FOR TREATING COGNITIVE IMPAIRMENT” (AGENEBIO, INC., priority 2022, published 2024):

target: α5β3γ2 GABAA R (Homo sapiens, UniProt P18507+P31644); assay: Binding activity on GABAA R: inhibition of [3H]Ro15-1788 binding, α5 containing receptor; conditions: not given
Procedure: Tissue culture and Membrane Preparation: The binding was performed on Ltk cells stably expressing GABAA R: […], α2β3γ2, α3β3γ2 and α5β3γ2 (provided by Merck Co., NJ, USA). Cells were seeded in 100 mm culture plates in DMEM/F12 medium containing 10% serum and antibiotics in 5% CO2 and allowed to grow for 1-2 days. GABAAR expression was then induced by dexamethasone as follows: 0.5 μM for 1 day for α5 containing and 2 μM for 3 days for α1, α2 and α3 containing GABAARs. After induction, cells were collected by scraping into Dulbecco's Phosphate buffered saline (DPBS, pH 7.4, Invitrogen, Carlsbad, CA, USA) and centrifuged at 150×g for 10 min. The pellet was washed twice by re-suspension and centrifugation. The cell pellets from at least 5 different preps were combined, suspended in the binding assay buffer (50 mM KH2PO4; 1 mM EDTA; 0.2 M KCl, pH 7.4) and membranes prepared by sonication (3-5 times, 30 sec) using Branson Sonifier 150 (G. Heinmann, Germany). Protein content was determined using BCA assay (Bio-Rad Labs, Reinach, Switzerland) with Bovine Serum Albumin (Sigma Aldrich, St. Louis, MO, USA) as the standard. Aliquots were prepared and stored at −20° C. for further use in binding assays.
Ligand Binding: Saturation binding curves were obtained by incubating membranes with increasing concentrations (0.01-8 nM) of [^3H]Rol5-1788 (Flumazepil, 75-85 Ci/mmol, PerkinElmer, MA, USA), with nonspecific binding measured in the presence of 10 μM diazepam.
All binding assays were performed for 1 h at 4° C. in assay buffer. The total assay volume was 0.5 ml containing 0.2 mg/ml protein for α5 and 0.4 mg/ml for α1, α2, and α3 containing GABAAR membranes. Incubations were terminated by filtration through GF/B filters using a 24-Cell Harvestor (Brandel, Gaithersburg, MD, USA) followed by 3 washes with ice-cold assay buffer. Filters were transferred to scintillation vials, 5 ml scintillation liquid added, vortex-mixed and kept in dark. Next day, radioactivity was obtained using a scintillation counter (Beckman Coulter, Brea, CA, USA). All assays were performed in triplicate.
Data Analyses: Saturation and inhibition curves were obtained using GraphPad Prism software (GraphPad Software, Inc., CA, USA).

α5β3γ2 GABAA R, sequence (P31644 32-462): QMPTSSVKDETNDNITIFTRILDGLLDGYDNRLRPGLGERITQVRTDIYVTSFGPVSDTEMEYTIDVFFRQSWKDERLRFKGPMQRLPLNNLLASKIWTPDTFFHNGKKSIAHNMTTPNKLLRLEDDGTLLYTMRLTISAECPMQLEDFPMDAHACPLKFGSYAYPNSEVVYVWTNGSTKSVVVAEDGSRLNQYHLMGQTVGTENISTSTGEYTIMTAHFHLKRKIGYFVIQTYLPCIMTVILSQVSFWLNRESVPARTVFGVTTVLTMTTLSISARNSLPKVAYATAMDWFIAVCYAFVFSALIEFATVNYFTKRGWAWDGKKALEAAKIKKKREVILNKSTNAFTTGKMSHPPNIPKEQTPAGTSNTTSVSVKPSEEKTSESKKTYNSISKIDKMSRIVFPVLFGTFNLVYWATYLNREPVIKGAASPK
α5β3γ2 GABAA R, sequence (P28472 26-473 partner): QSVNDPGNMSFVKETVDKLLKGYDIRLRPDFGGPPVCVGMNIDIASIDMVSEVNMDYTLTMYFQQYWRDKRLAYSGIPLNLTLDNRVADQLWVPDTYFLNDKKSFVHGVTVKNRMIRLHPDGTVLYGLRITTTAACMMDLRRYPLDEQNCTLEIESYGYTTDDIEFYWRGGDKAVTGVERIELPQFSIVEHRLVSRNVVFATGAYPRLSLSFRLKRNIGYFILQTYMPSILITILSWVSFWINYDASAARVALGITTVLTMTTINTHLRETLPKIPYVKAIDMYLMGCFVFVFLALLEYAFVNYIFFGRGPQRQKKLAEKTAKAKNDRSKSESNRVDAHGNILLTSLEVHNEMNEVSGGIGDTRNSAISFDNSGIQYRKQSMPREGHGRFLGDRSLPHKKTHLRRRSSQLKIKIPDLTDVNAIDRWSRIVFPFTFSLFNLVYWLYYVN
α5β3γ2 GABAA R, sequence (P18507 40-475): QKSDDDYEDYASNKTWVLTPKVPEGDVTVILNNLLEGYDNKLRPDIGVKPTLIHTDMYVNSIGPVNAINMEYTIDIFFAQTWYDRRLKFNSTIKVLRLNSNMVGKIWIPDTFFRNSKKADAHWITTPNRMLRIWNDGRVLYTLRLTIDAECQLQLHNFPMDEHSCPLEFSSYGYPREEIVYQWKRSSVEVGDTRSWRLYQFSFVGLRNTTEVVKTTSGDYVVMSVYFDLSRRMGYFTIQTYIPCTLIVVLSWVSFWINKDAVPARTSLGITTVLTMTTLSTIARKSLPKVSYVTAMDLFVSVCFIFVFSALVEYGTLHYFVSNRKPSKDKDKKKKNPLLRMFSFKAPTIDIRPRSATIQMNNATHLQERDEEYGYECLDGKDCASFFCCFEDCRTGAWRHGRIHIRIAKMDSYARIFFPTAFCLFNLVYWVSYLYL

`COc1ccc2c(c1)-c1nn(CC3CCCO3)cc1Cc1c(-c3noc(C4(OC)CC4)n3)ncn1-2` (stereo not shown) [Compound 323] and `CC1(c2nc(-c3ncn4c3Cc3cn(CC5CCCO5)nc3-c3cc(Cl)ccc3-4)no2)CCOCC1` (stereo not shown) [Compound 365] cannot be ordered by Ki: less than 100 nM for the first, less than 100 nM for the second.

`COc1ccc2c(c1)-c1[nH]ncc1Cc1c(C3=N[C@H](c4ccc(Cl)cc4)CO3)ncn1-2` [Compound 24] and `COc1ccc2c(c1)-c1[nH]ncc1Cc1c(-c3cnn(Cc4ccccc4)c3)ncn1-2` [Compound 72] cannot be ordered by Ki: less than 100 nM for the first, less than 100 nM for the second.

First: COc1ccc2c(c1)-c1nn(C)cc1Cc1c(-c3nc(CN(C(C)C)C(C)C)co3)ncn1-2 [Compound 380]
Second: COc1ccc2c(c1)-c1nn(C)cc1Cc1c(-c3nc(CN4CCCC4)co3)ncn1-2 [Compound 270]
The Ki of the first is lower: less than 100 nM for the first, 100 to 1000 nM for the second.

`Clc1ccc2c(c1)-c1nn(CC3CCCO3)cc1Cc1c(-c3cnn(CC4CCOCC4)c3)ncn1-2` (stereo not shown) [Compound 319] and `Clc1ccc2c(c1)-c1nn(CC3CCCO3)cc1Cc1c(-c3cnn(Cc4ccccn4)c3)ncn1-2` (stereo not shown) [Compound 320] cannot be ordered by Ki: less than 100 nM for the first, less than 100 nM for the second.

`COc1ccc2c(c1)-c1nn(C)cc1Cc1c(-c3nc(CN4CCOCC4)co3)ncn1-2` [Compound 271] and `COc1ccc2c(c1)-c1nn(C)cc1Cc1c(-c3nc(COC4CCOC4)co3)ncn1-2` (stereo not shown) [Compound 273] cannot be ordered by Ki: less than 100 nM for the first, less than 100 nM for the second.

`COc1cccc(Cn2cc(-c3ncn4c3Cc3cn(C)nc3-c3cc(Cl)ccc3-4)cn2)n1` [Compound 336] and `COc1cccc(Cn2cc(-c3ncn4c3Cc3cn(C5CCOC5)nc3-c3cc(Cl)ccc3-4)cn2)n1` (stereo not shown) [Compound 338] cannot be ordered by Ki: less than 100 nM for the first, less than 100 nM for the second.

`COc1ccc2c(c1)-c1nn(C)cc1Cc1c(-c3noc(C4(OC(C)C)CC4)n3)ncn1-2` [Compound 370] and `COc1ccc2c(c1)-c1nn(C)cc1Cc1c(-c3noc(C4(C)COC4)n3)ncn1-2` [Compound 317] cannot be ordered by Ki: less than 100 nM for the first, less than 100 nM for the second.

`COc1ccc2c(c1)-c1c(cnn1CC1CC1)Cc1c(-c3nc(C(F)(F)F)no3)ncn1-2` [Compound 117] and `COc1ccc2c(c1)-c1c(cnn1CC1CCOC1)Cc1c(-c3noc(C(C)(C)OC)n3)ncn1-2` (stereo not shown) [Compound 375] cannot be ordered by Ki: less than 100 nM for the first, less than 100 nM for the second.

`COc1ccc2c(c1)-c1[nH]ncc1Cc1c(-c3cc(C(F)(F)F)nn3C)ncn1-2` [Compound 79] and `Cn1cc(-c2ncn3c2Cc2cn[nH]c2-c2cc(Cl)ccc2-3)cn1` [Compound 62] fall in the same range of Ki: 100 to 1000 nM for the first, 100 to 1000 nM for the second.

`COc1ccc2c(c1)-c1nn(C)cc1Cc1c(-c3noc(C4(F)CCOC4)n3)ncn1-2` (stereo not shown) [Compound 356] and `COc1ccc2c(c1)-c1nn(C)cc1Cc1c(-c3noc(CC4COC4)n3)ncn1-2` [Compound 366] cannot be ordered by Ki: less than 100 nM for the first, less than 100 nM for the second.

First: CCOC(=O)c1cnc2n1CC(=O)N(C)c1cc(Cl)ccc1-2 [Compound 28]
Second: CCOC(=O)c1cnc2n1Cc1nncn1-c1cc(Cl)ccc1-2 [Compound 56]
The Ki of the first is higher: greater than 1000 nM for the first, less than 100 nM for the second. The second binds more tightly here.

`Cn1cc2c(n1)-c1cc(Cl)ccc1-n1cnc(-c3noc(Cn4cccn4)n3)c1C2` [Compound 372] and `Cn1cc2c(n1)-c1cc(Cl)ccc1-n1cnc(-c3noc(Cn4cccc4)n3)c1C2` [Compound 371] cannot be ordered by Ki: less than 100 nM for the first, less than 100 nM for the second.

`COCCn1cc2c(n1)-c1cc(OC)ccc1-n1cnc(-c3noc(C4CCOCC4)n3)c1C2` [Compound 318] and `COc1ccc2c(c1)-c1nn(CCOC(F)(F)F)cc1Cc1c(-c3noc(C(C)(C)OC)n3)ncn1-2` [Compound 343] cannot be ordered by Ki: less than 100 nM for the first, less than 100 nM for the second.

`COc1ccc(Cn2ncc3c2-c2cc(OC)ccc2-n2cnc(C#Cc4ccnn4C)c2C3)cc1` [Compound 37] and `COc1ccc(Cn2ncc3c2-c2cc(OC)ccc2-n2cnc(C#Cc4ccc(OC)nc4)c2C3)cc1` [Compound 36] fall in the same range of Ki: 100 to 1000 nM for the first, 100 to 1000 nM for the second.

`Clc1ccc2c(c1)-c1[nH]ncc1Cc1c(-c3cnn(-c4ccccc4)c3)ncn1-2` [Compound 60] and `CC(C)n1cc2c(n1)-c1cc(Cl)ccc1-n1cnc(-c3cnn(Cc4ccccc4)c3)c1C2` [Compound 165] fall in the same range of Ki: 100 to 1000 nM for the first, 100 to 1000 nM for the second.

`CC(C)(C)C#Cc1ncn2c1Cc1cn(Cc3ccccc3)nc1-c1cc(Cl)ccc1-2` [Compound 92] and `COc1ccc2c(c1)-c1nn(Cc3ccccc3)cc1Cc1c(-c3nc(C)no3)ncn1-2` [Compound 16] cannot be ordered by Ki: less than 100 nM for the first, less than 100 nM for the second.

`CC(C)c1noc(-c2ncn3c2Cc2cnn(C)c2-c2cc(Cl)ccc2-3)n1` [Compound 4] and `COc1ccc2c(c1)-c1c(cnn1C)Cc1c(-c3nc(C(C)C)no3)ncn1-2` [Compound 47] fall in the same range of Ki: 100 to 1000 nM for the first, 100 to 1000 nM for the second.

`COc1ccc2c(c1)-c1nn(C)cc1Cc1c(-c3noc(CCN4CCCC4=O)n3)ncn1-2` [Compound 369] and `COc1ccc2c(c1)-c1nn(C)cc1Cc1c(-c3noc(CN4CCCC4)n3)ncn1-2` [Compound 347] cannot be ordered by Ki: less than 100 nM for the first, less than 100 nM for the second.

Compared with `COc1ccc2c(c1)-c1nn(C)cc1Cc1c(-c3noc(CC(C)(C)OC)n3)ncn1-2` [Compound 344], `CCn1cc2c(n1)-c1cc(OC)ccc1-n1cnc(-c3nc(CN(C)C)no3)c1C2` [Compound 241] is lower in Ki: 100 to 1000 nM for the first, less than 100 nM for the second.

Compared with `COc1ccc2c(c1)-c1nn(Cc3ccccc3F)cc1Cc1c(-c3cnn(-c4ccccc4)c3)ncn1-2` [Compound 75], `COc1cccc(Cn2cc(-c3ncn4c3Cc3cn(CC5CCCO5)nc3-c3cc(Cl)ccc3-4)cn2)n1` (stereo not shown) [Compound 337] is lower in Ki: 100 to 1000 nM for the first, less than 100 nM for the second. The second binds more tightly here.

`CCn1cc2c(n1)-c1cc(Cl)ccc1-n1cnc(C3=N[C@@H](C(C)C)CO3)c1C2` [Compound 180] and `CCn1cc2c(n1)-c1cc(Cl)ccc1-n1cnc(-c3noc(CN4CCCC4)n3)c1C2` [Compound 350] cannot be ordered by Ki: less than 100 nM for the first, less than 100 nM for the second.

First: CC(C)c1noc(-c2ncn3c2Cc2cnn(Cc4ccccc4)c2-c2cc(Cl)ccc2-3)n1 [Compound 2]
Second: Cn1cc2c(n1)-c1cc(Cl)ccc1-n1cnc(-c3ncco3)c1C2 [Compound 166]
The Ki of the first is higher: 100 to 1000 nM for the first, less than 100 nM for the second.

`COc1ccc(C#Cc2ncn3c2Cc2cn[nH]c2-c2cc(OC)ccc2-3)nc1` [Compound 53] and `COc1ccc2c(c1)-c1[nH]ncc1Cc1c(C#Cc3ccc(OC)nc3)ncn1-2` [Compound 38] cannot be ordered by Ki: less than 100 nM for the first, less than 100 nM for the second.

`COCc1noc(-c2ncn3c2Cc2cn(CC4CCOC4)nc2-c2cc(Cl)ccc2-3)n1` (stereo not shown) [Compound 351] and `FC(F)(F)c1noc(-c2ncn3c2Cc2cn(CC4CCCO4)nc2-c2cc(Cl)ccc2-3)n1` (stereo not shown) [Compound 227] cannot be ordered by Ki: less than 100 nM for the first, less than 100 nM for the second.

`Cn1cc2c(n1)-c1cc(Cl)ccc1-n1cnc(C3=NC4(COC4)CO3)c1C2` [Compound 182] and `COc1ccc2c(c1)-c1nn(C)cc1Cc1c(-c3nc(C4(C)CCOCC4)no3)ncn1-2` [Compound 352] cannot be ordered by Ki: less than 100 nM for the first, less than 100 nM for the second.

`CC(C)c1noc(-c2cnc3n2CC(=O)N(C)c2cc(Cl)ccc2-3)n1` [Compound 31] gave a Ki greater than 1000 nM.

same assay, conditions: ranges of the column heads; [3H]Ro15-1788, Ltk cell membranes

`COCc1noc(-c2ncn3c2Cc2cn(CC4CCOC4)nc2-c2cc(OC)ccc2-3)n1` (stereo not shown) [Compound 299] and `COc1ccc2c(c1)-c1nn(C)cc1Cc1c(-c3nc(COC4CCOC4)no3)ncn1-2` (stereo not shown) [Compound 316] cannot be ordered by Ki: less than 100 nM for the first, less than 100 nM for the second.

Going from `CCn1cc2c(n1)-c1cc(OC)ccc1-n1cnc(-c3noc(C4(OC)CC4)n3)c1C2` [Compound 340] to `COc1ccc2c(c1)-c1nn(C)cc1Cc1c(-c3nc(C4CCOC4)co3)ncn1-2` (stereo not shown) [Compound 262], the Ki rises from less than 100 nM to greater than 1000 nM.

`COc1ccc2c(c1)-c1nn(C)cc1Cc1c(-c3nc(CN(C(C)=O)C(C)C)co3)ncn1-2` [Compound 381] and `CC(=O)N(C)Cc1noc(-c2ncn3c2Cc2cn(C)nc2-c2cc(Cl)ccc2-3)n1` [Compound 386] cannot be ordered by Ki: less than 100 nM for the first, less than 100 nM for the second.

Compared with `COc1ccc2c(c1)-c1[nH]ncc1Cc1c(C3=CCCC3)ncn1-2` [Compound 74], `COc1ccc2c(c1)-c1[nH]ncc1Cc1c(-c3cn(C)nc3C(F)(F)F)ncn1-2` [Compound 81] is higher in Ki: 100 to 1000 nM for the first, greater than 1000 nM for the second.

`Cc1noc(-c2cnc3n2CC(=O)Nc2cc(Cl)ccc2-3)n1` [Compound 26] and `Cc1noc(-c2cnc3n2CC(=O)N(C)c2cc(Cl)ccc2-3)n1` [Compound 32] cannot be ordered by Ki: greater than 1000 nM for the first, greater than 1000 nM for the second.

First: COc1ccc2c(c1)-c1c(cnn1C)Cc1c(-c3nc(CN4CCOCC4)no3)ncn1-2 [Compound 329]
Second: CC(C)Cc1noc(-c2ncn3c2Cc2cnoc2-c2cc(Cl)ccc2-3)n1 [Compound 66]
The Ki of the first is lower: 100 to 1000 nM for the first, greater than 1000 nM for the second.

Going from `CN1C(=O)Cn2c(C3=N[C@@H](c4ccccc4)CO3)cnc2-c2ccc(Cl)cc21` [Compound 30] to `Clc1ccc2c(c1)-c1nn(CC3CCOC3)cc1Cc1c(-c3cnn(Cc4ccccc4)c3)ncn1-2` (stereo not shown) [Compound 229], the Ki falls from greater than 1000 nM to less than 100 nM. The second binds more tightly here.

`CCOC(=O)c1ncn2c1Cc1cnoc1-c1cc(OC)ccc1-2` [Compound 40] and `Cn1cc2c(n1)-c1cc(Cl)ccc1-n1cnc(-c3nc(COC4CCOCC4)co3)c1C2` [Compound 346] cannot be ordered by Ki: less than 100 nM for the first, less than 100 nM for the second.
